For the assay, the system named is CD2F1 mice, L1210 leukemia ip, survival T/C. As to the kind of experiment: NCI In Vivo Anticancer Drug Screen. Data for tumor model L1210 Leukemia (intraperitoneal) in CD2F1 (CDF1) mice. As to conditions: higher = longer survival. In a few lines:
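Compound-dosed mice with transplantable tumor versus matched vehicle controls; endpoint ratio T/C reported.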

The mark [1] stands for this setting: endpoint: mean survival time, dose: 100.0 mg/kg/injection, schedule: Q01DX009 (ip), vehicle: saline with Tween-80.
Where [2] appears, read: endpoint: mean survival time, dose: 100.0 mg/kg/injection, schedule: Q04DX003 (ip), vehicle: saline with Tween-80.
The mark [3] stands for this setting: endpoint: mean survival time, dose: 200.0 mg/kg/injection, schedule: Q01DX009 (ip), vehicle: saline with Tween-80.
[4] abbreviates: endpoint: mean survival time, dose: 200.0 mg/kg/injection, schedule: Q04DX003 (ip), vehicle: saline with Tween-80.
The mark [5] stands for this setting: endpoint: mean survival time, dose: 400.0 mg/kg/injection, schedule: Q01DX009 (ip), vehicle: saline with Tween-80.
Where [6] appears, read: endpoint: mean survival time, dose: 400.0 mg/kg/injection, schedule: Q04DX003 (ip), vehicle: saline with Tween-80.
The mark [7] stands for this setting: endpoint: mean survival time, dose: 100.0 mg/kg/injection, schedule: Q01DX001 (ip), vehicle: saline with Tween-80.
The mark [8] stands for this setting: endpoint: mean survival time, dose: 200.0 mg/kg/injection, schedule: Q01DX001 (ip), vehicle: saline with Tween-80.
[9] abbreviates: endpoint: mean survival time, dose: 400.0 mg/kg/injection, schedule: Q01DX001 (ip), vehicle: saline with Tween-80.
Where [10] appears, read: endpoint: mean survival time, dose: 25.0 mg/kg/injection, schedule: Q01DX009 (ip), vehicle: saline with Tween-80.
Where [11] appears, read: endpoint: mean survival time, dose: 100.0 mg/kg/injection, schedule: Q04DX002 (ip), vehicle: saline with Tween-80.
The mark [12] stands for this setting: endpoint: mean survival time, dose: 200.0 mg/kg/injection, schedule: Q04DX002 (ip), vehicle: saline with Tween-80.
Setting [13] is: endpoint: mean survival time, dose: 400.0 mg/kg/injection, schedule: Q04DX002 (ip), vehicle: saline with Tween-80.
The mark [14] stands for this setting: endpoint: mean survival time, dose: 50.0 mg/kg/injection, schedule: Q01DX009 (ip), vehicle: saline with Tween-80.

Where “and” joins values, the source holds several entries; their conditions need not be identical. Equal entries are not always repeated. Inconclusive results and toxic doses are left out.

Regarding `O=C1c2cccc(Oc3ccccc3)c2C(=O)c2cccc(Oc3ccccc3)c21`, the T/C is 94 % of control under setting [1]; 96 % of control under setting [2]; 89 % of control under setting [3]; 97 % of control under setting [4]; 98 % of control under setting [5]; 94 % of control under setting [6].

Take `CC(C)c1cc2c(cc1O)C1(C)CCCC(C)(C#N)C1CC2` (stereo not given): the T/C is, setting by setting: (endpoint: mean survival time, dose: 100.0 mg/kg/injection, schedule: Q01DX009 (ip), vehicle: saline sonified) 95 % of control; (endpoint: mean survival time, dose: 200.0 mg/kg/injection, schedule: Q01DX009 (ip), vehicle: saline sonified) 89 % of control; (endpoint: mean survival time, dose: 400.0 mg/kg/injection, schedule: Q01DX009 (ip), vehicle: saline sonified) 91 % of control.

Consider `COc1cc(C)cc(N)n1`, for which the T/C is, setting by setting: (endpoint: mean survival time, dose: 6.25 mg/kg/injection, schedule: Q01DX001 (ip), vehicle: saline with Tween-80) 89 % of control; (endpoint: mean survival time, dose: 12.5 mg/kg/injection, schedule: Q01DX001 (ip), vehicle: saline with Tween-80) 92 % of control; (endpoint: mean survival time, dose: 25.0 mg/kg/injection, schedule: Q01DX001 (ip), vehicle: saline with Tween-80) 89 % of control.

Turning to `CN(N=O)C(=O)NCC1OC(OC2(CNC(=O)N(C)N=O)OC(CNC(=O)N(C)N=O)C(O)C2O)C(O)C(O)C1O` (stereo not given), the T/C is 102 % of control (endpoint: mean survival time, dose: 12.5 mg/kg/injection, schedule: Q01DX009 (ip), vehicle: water); 104 % of control (endpoint: mean survival time, dose: 25.0 mg/kg/injection, schedule: Q01DX009 (ip), vehicle: water); 110 % of control (endpoint: mean survival time, dose: 50.0 mg/kg/injection, schedule: Q01DX009 (ip), vehicle: water); 117 % of control (endpoint: mean survival time, dose: 100.0 mg/kg/injection, schedule: Q01DX009 (ip), vehicle: water).

Regarding `O=C(/C=C\c1ccc(Cl)cc1)c1ccccc1`, the T/C under setting [7] is 100 % of control, the T/C under setting [8] is 96 % of control and the T/C under setting [9] was 96 % of control.

On to `CCCCS.[Hg]`, for which the T/C reads like this: (endpoint: mean survival time, dose: 6.25 mg/kg/injection, schedule: Q01DX009 (ip), vehicle: saline with Tween-80) 95 % of control; (endpoint: mean survival time, dose: 12.5 mg/kg/injection, schedule: Q01DX009 (ip), vehicle: saline with Tween-80) 96 % of control; under setting [10], 95 % of control.

As to `C=CC=O`, the T/C (endpoint: mean survival time, dose: 1.87 mg/kg/injection, schedule: Q01DX009 (ip), vehicle: saline) was 92 % of control.

For the compound `O=C(c1ccccc1)C1(Br)CCC1`, the T/C was 95 % of control under setting [2], 97 % of control under setting [4] and 100 % of control under setting [6].

As to `CC(C)OC(=O)Nc1ccccn1`, the T/C runs as follows: under setting [11], 100 % of control; under setting [12], 100 % of control; under setting [13], 104 % of control.

Regarding `O=C(N/C=C\NC(=O)Nc1cccc(Cl)c1)Nc1cccc(Cl)c1`, the T/C was 90 % of control under setting [11], 90 % of control under setting [12] and 98 % of control under setting [13].

As for `O=C(O)C(CSC(c1ccccc1)(c1ccccc1)c1ccccc1)N=Cc1cccs1` (stereo not given), the T/C reads like this: (endpoint: mean survival time, dose: 12.5 mg/kg/injection, schedule: Q01DX009 (ip), vehicle: saline) 109 % of control; (endpoint: mean survival time, dose: 12.5 mg/kg/injection, schedule: Q01DX009 (ip), vehicle: suspension in saline) 113 % of control; (endpoint: mean survival time, dose: 25.0 mg/kg/injection, schedule: Q01DX009 (ip), vehicle: suspension in saline) 111 % of control; (endpoint: mean survival time, dose: 66.0 mg/kg/injection, schedule: Q01DX009 (ip), vehicle: saline) 163 % of control; under setting [1], 172 % of control; (endpoint: mean survival time, dose: 100.0 mg/kg/injection, schedule: Q01DX009 (ip), vehicle: saline) 163 % of control. Moreover, the T/C (endpoint: mean survival time, dose: 100.0 mg/kg/injection, schedule: Q01DX009 (ip), vehicle: suspension in saline) is 173 % of control; the T/C under setting [3] was 118 % of control; the T/C (endpoint: mean survival time, dose: 200.0 mg/kg/injection, schedule: Q01DX009 (ip), vehicle: saline) was 90 % of control; the T/C (endpoint: mean survival time, dose: 200.0 mg/kg/injection, schedule: Q01DX009 (ip), vehicle: suspension in saline) is 94 % of control.

`Cc1nc([N+](=O)[O-])c(Br)n1C`: the T/C was 103 % of control under setting [2], 108 % of control under setting [4] and 94 % of control under setting [6].

Regarding `O=C1c2ccccc2S(=O)(=O)N1CC(O)COc1ccc(Cl)cc1` (stereo not given), the T/C runs as follows: under setting [2], 101 % of control; under setting [4], 101 % of control; under setting [6], 93 % of control.

Take `O=S(=O)(Cl)C(Cl)(Cl)Cl`: the T/C is 96 % of control under setting [10]; 102 % of control under setting [14]; 97 % of control (endpoint: mean survival time, dose: 50.0 mg/kg/injection, schedule: Q04DX003 (ip), vehicle: saline with Tween-80); 95 % of control under setting [1]; 94 % of control under setting [2].

Turning to `Cc1ccc(S(=O)(=O)Cl)cc1`, the T/C is 91 % of control (endpoint: mean survival time, dose: 100.0 mg/kg/injection, schedule: Q04DX002 (ip), vehicle: saline) and 100 % of control (endpoint: mean survival time, dose: 200.0 mg/kg/injection, schedule: Q04DX002 (ip), vehicle: saline).

For the compound `CCCCCCCCCCCCNC(=O)C[N+](C)(C)Cc1ccc2c(c1)CCCC2`, the T/C is 95 % of control (endpoint: mean survival time, dose: 5.0 mg/kg/injection, schedule: Q04DX003 (ip), vehicle: saline with Tween-80) and 105 % of control (endpoint: mean survival time, dose: 10.0 mg/kg/injection, schedule: Q04DX003 (ip), vehicle: saline with Tween-80).

On to `CC(C)(O)CCC(C)(O)C1CCC2C3CCC4CC(O)CCC4(C)C3CCC21C` (stereo not given), for which the T/C is, setting by setting: under setting [7], 92 % of control; under setting [8], 93 % of control; under setting [9], 86 % of control.

Take `CN(C)c1ccc(/C=N/NC(=O)CNC(=O)Nc2cccc([N+](=O)[O-])c2)c(Cl)c1`: under setting [14], the T/C was 88 % of control.

As to `N#Cc1cn(C2CCCCC2)c2ncccc12`, the T/C (endpoint: mean survival time, dose: 100.0 mg/kg/injection, schedule: Q04DX003 (ip), vehicle: saline) is 113 % of control and the T/C (endpoint: mean survival time, dose: 200.0 mg/kg/injection, schedule: Q04DX003 (ip), vehicle: saline) was 97 % of control.

Turning to `CO[C@H]1C[C@](C)(O)Cc2cc3c(c(O)c21)C(=O)c1c(O)cc2c(c1C3=O)O[C@@H]1O[C@@]2(C)[C@H](O)[C@@H](N(C)C)[C@@H]1O`, the T/C is, setting by setting: (endpoint: mean survival time, dose: 0.78 mg/kg/injection, schedule: Q01DX009 (ip), vehicle: other) 123 % of control and 112 % of control; (endpoint: mean survival time, dose: 3.12 mg/kg/injection, schedule: Q01DX009 (ip), vehicle: other) 117 % of control; (endpoint: mean survival time, dose: 3.13 mg/kg/injection, schedule: Q01DX009 (ip), vehicle: other) 151 % of control; (endpoint: mean survival time, dose: 3.13 mg/kg/injection, schedule: Q01DX009 (oral), vehicle: other) 112 % of control; (endpoint: mean survival time, dose: 3.13 mg/kg/injection, schedule: Q01DX009 (oral), vehicle: saline) 102 % of control; (endpoint: mean survival time, dose: 6.25 mg/kg/injection, schedule: Q01DX009 (oral), vehicle: other) 116 % of control. Also, the T/C is, setting by setting: (endpoint: mean survival time, dose: 6.25 mg/kg/injection, schedule: Q01DX009 (oral), vehicle: saline) 116 % of control; (endpoint: mean survival time, dose: 12.5 mg/kg/injection, schedule: Q01DX009 (oral), vehicle: other) 153 % of control; (endpoint: mean survival time, dose: 25.0 mg/kg/injection, schedule: Q01DX009 (oral), vehicle: other) 208 % of control; (endpoint: mean survival time, dose: 25.0 mg/kg/injection, schedule: Q01DX009 (oral), vehicle: saline) 183 % of control; (endpoint: mean survival time, dose: 50.0 mg/kg/injection, schedule: Q01DX009 (oral), vehicle: other) 102 % of control; (endpoint: mean survival time, dose: 50.0 mg/kg/injection, schedule: Q01DX009 (oral), vehicle: saline) 168 % of control. Also, the T/C runs as follows: (endpoint: median survival time, dose: 6.7 mg/kg/injection, schedule: Q01DX009 (ip), vehicle: other) 197 % of control and 225 % of control; (endpoint: median survival time, dose: 10.0 mg/kg/injection, schedule: Q01DX009 (ip), vehicle: other) 208 % of control and 250 % of control; (endpoint: median survival time, dose: 15.0 mg/kg/injection, schedule: Q01DX009 (ip), vehicle: other) 302 % of control and 332 % of control; (endpoint: median survival time, dose: 22.5 mg/kg/injection, schedule: Q01DX009 (ip), vehicle: other) 152 % of control and 169 % of control.

For the compound `O=S(=O)(CCBr)CCBr`, the T/C under setting [1] is 95 % of control; the T/C under setting [2] was 109 % of control; the T/C under setting [3] was 86 % of control; the T/C under setting [4] is 107 % of control; the T/C under setting [5] is 100 % of control; the T/C under setting [6] is 88 % of control.

The record behind these values is PubChem BioAssay AID256 (DTP/NCI, 2004).
